Experimental data taken from US6713048B2, “Δ9 tetrahydrocannabinol (Δ9 THC) solution metered dose inhalers and methods of use” (Virginia Commonwealth University, priority 1998, dated 2004).
“Also recorded” adds a separate entry of the source.

Assays:
[1] = system: Spasticity and pain due to spinal cord injury; details: oral THC (5 mg) or codeine (50 mg); 1 patient; cited from earlier work
[2] = system: Nausea and emesis due to Cancer chemotherapy; details: oral 15 mg THC, 10 mg prochloperzine or placebo; 116 patients; cited from earlier work
[3] = system: Male ICR mice; test: Antinociception, tail-flick test; type: in vivo
Method: (§1) Male ICR mice, weighing approximately 30 g, obtained from Harlan Laboratories (Indianapolis, Ind.) were provided a light cycle of approximately 6 a.m. to 6 p.m., and the temperature remained approximately 23° C. The mice were placed in the lab and allowed to accommodate to the surroundings the evening prior to testing. Animals were allowed food (Harlan Teklab, Madison, Wis.) and water ad libitum.
The exposure chamber was a modified, inverted, 1-liter separation funnel, housed under a fume hood, which allowed four mice to be simultaneously exposed to the aerosol. Air was drawn through the chamber at a rate of approximately 60 ml/minute and filtered through glass wool (Corning Inc., Corning, N.Y.) and charcoal traps (SKC Inc., Eighty Four, Pa.) upon exiting the exposure chamber. Each actuation of Δ^9-THC or vehicle was delivered once per 5 s and the entire exposure period was 10 min. Mice were exposed to 20, 40 or 60 actuations of aerosolized Δ^9-THC or 60 actuations of vehicle.
Mice were placed in separate clear chambers (16.5 cm×25.5 cm×11.5 cm high) and assessed for hypomotility using a Digiscan Animal Activity Monitor (Omnitech Electronics Inc., Columbus, Ohio) in which the total number of photocell-light beam interruptions was counted. Antinociception was assessed in the tail-flick test (D'Amour, F. E., Smith, D. L., A method for determining loss of pain sensation, J Pharm Exp Ther, 72:74-79 (1941)) with heat intensity adjusted to give baseline latencies ranging from 2.0-4.0 seconds. A cut-off time of 10 seconds was used to limit tissue damage. Percent maximum possible effect (%MPE) was determined according to the following formula:
%MPE=[(test latency-baseline latency)/(cut-off-baseline latency)]*100
(§2) A ring-test procedure was used to assess catalepsy. The percent of time during a five minute observation period that mice remained motionless, except for movements related to respiration, while stationed on a 5.7 cm diameter ring stand 23 cm above the laboratory bench, was assessed. Body temperature was assessed by inserting a thermometer probe (Traceable Digital, Control Co., Friendswood, Tex.) 2.5 cm into the rectum. Subjects were assessed for baseline tail-flick latency and rectal temperature prior to drug or vehicle administration. […] Locomotor activity, tail-flick latency, catalepsy, and hypothermia were assessed 5, 20, 40, and 60 minutes, respectively, after aerosol exposure. An additional group of animals was given an i.v. injection of Δ^9-THC (0.3, 1, 3, or 10 mg/kg) or vehicle into a lateral tail vein and assessed in the tail-flick test 20 minutes later. All injections were given in a volume of 0.1 ml per 10 g animal weight.
The statistical analysis of the data was as follows. Data are represented by means±standard error (s.e.). Statistical analysis of the data was performed using Student t-tests (for the physiochemical comparisons of the aerosol), or ANOVA (for pharmacological studies), with significance set at p<0.05. Post hoc tests for significant ANOVAs included either Dunnett's test or Tukey/Kramer post-hoc analysis. […] A sample size of 6-8 mice was used in each group.

[4] = system: Male ICR mice; test: Catalepsy, ring-test (ring immobility); type: in vivo; details: SR 141716A 10 mg/kg i.p. 5 min before 60 actuations of Δ^9-THC MDI
Method: as §1
(§3) The exposure chamber was a modified, inverted, 1-liter separation funnel, housed under a fume hood, which allowed four mice to be simultaneously exposed to the aerosol. […]
as §2, with “An additional group of animals was given an i.v. injection of Δ^9-THC (0.3, 1, 3, or 10 mg/kg) or vehicle into a lateral tail vein and assessed in the tail-flick test 20 minutes later. All injections were given in a volume of 0.1 ml per 10 g animal weight.” left out

[5] = system: Male ICR mice; test: Locomotor activity (hypomotility), Digiscan Animal Activity Monitor; type: in vivo; details: SR 141716A 10 mg/kg i.p. 5 min before 60 actuations of Δ^9-THC MDI
Method: Mice were placed in separate clear chambers (16.5 cm×25.5 cm×11.5 cm high) and assessed for hypomotility using a Digiscan Animal Activity Monitor (Omnitech Electronics Inc., Columbus, Ohio) in which the total number of photocell-light beam interruptions was counted. Antinociception was assessed in the tail-flick test (D'Amour, F. E., Smith, D. L., A method for determining loss of pain sensation, J Pharm Exp Ther, 72:74-79 (1941)) with heat intensity adjusted to give baseline latencies ranging from 2.0-4.0 seconds. […] Percent maximum possible effect (%MPE) was determined according to the following formula:
A ring-test procedure was used to assess catalepsy. […] Body temperature was assessed by inserting a thermometer probe (Traceable Digital, Control Co., Friendswood, Tex.) 2.5 cm into the rectum. […]

[6] = system: Male ICR mice; test: Hypothermia, rectal temperature; type: in vivo; details: SR 141716A 10 mg/kg i.p. 5 min before 60 actuations of Δ^9-THC MDI
Method: as §1, §3
as §2, with “An additional group of animals was given an i.v. injection of Δ^9-THC (0.3, 1, 3, or 10 mg/kg) or vehicle into a lateral tail vein and assessed in the tail-flick test 20 minutes later. All injections were given in a volume of 0.1 ml per 10 g animal weight.” left out

[7] = system: mice; details: cited from earlier work

## COc1ccc2c3c1O[C@H]1[C@@H](O)C=C[C@H]4[C@@H](C2)N(C)CC[C@@]341 [codeine]
[1]
  effect on spasticity: codeine did not

## CN1CCN(CCCN2c3ccccc3Sc3ccc(Cl)cc32)CC1 [prochlorperazine]
[2]
  antiemetic effect compared with placebo: each greater than placebo;
  antiemetic effects, THC vs prochlorperazine: Equal antiemetic effects

## Cc1c(C(=O)NN2CCCCC2)nn(-c2ccc(Cl)cc2Cl)c1-c1ccc(Cl)cc1 [SR 141716A]
[3]; SR 141716A 10 mg/kg i.p. 5 min before 60 actuations of Δ^9-THC MDI
  antagonism of Δ^9-THC-induced antinociception: significantly blocked; also recorded: significantly antagonized
[3]; i.p. pretreatment, exposure to Δ^9-THC
  AD50 (95% C.L.) in antagonizing the antinociceptive effects of inhaled Δ^9-THC: 0.8 mg/kg
[4]
  antagonism of Δ^9-THC-induced catalepsy: significantly blocked; also recorded: significantly antagonized
[5]
  antagonism of Δ^9-THC-induced hypomotility: significantly blocked; also recorded: significantly antagonized
[6]
  antagonism of Δ^9-THC-induced hypothermia: significantly blocked; also recorded: not completely antagonized; also recorded: significantly antagonized
[7]; exposure to marijuana smoke (Lichtman et al., 2001)
  ED50 in antagonizing antinociceptive effects: 0.6 mg/kg
[7]; mice exposed to marijuana smoke (Lichtman et al., 2001)
  antagonism of effects of marijuana smoke: only effectively antagonized the antinociceptive response
